Measured values taken from US20210137930A1, “EXPANSION OF TUMOR INFILTRATING LYMPHOCYTES (TILS) WITH ADENOSINE A2A RECEPTOR ANTAGONISTS AND THERAPEUTIC COMBINATIONS OF TILS AND ADENOSINE A2A RECEPTOR ANTAGONISTS” (Iovance Biotherapeutics, Inc., priority 2018, published 2021).

Columns and labels:
[1] = system: peripheral blood B cells; conditions: cynomolgus monkeys; doses from 0.001-100 mg/kg; two experiments; WO 2015/119923; cited from earlier work
[2] = system: lung TILs; assay: Flow cytometry of CD8+ and CD4+ subsets, lung TILs expanded with CPI-444; type: cell-based, human; conditions: lung TIL cultures
Description: (§1) After TIL harvesting, the TILs are phenotypically analyzed: (1) the total number of cells were counted with an automated cell counter; (2) Flow cytometry was used to determine the fraction of TILs that were CD4^+, CD8^+, within the subset of memory T-Cells, and to determine the presence/absence of A2aR and the expression level of A2aR.
(§2) FIG. 43 illustrates the results of flow cytometry analysis of CD8^+ and CD4^+ subsets for melanoma TILs obtained after the addition of the A2AR antagonist to pre-REP and REP cultures under various conditions. FIG. 44 and FIG. 45 illustrates flow cytometry analysis of CD8^+ and CD4^+ subsets for lung TILs (first and second lung tumor, respectively) obtained after the addition of CPI-444 to pre-REP and REP cultures under various conditions.

[3] = system: melanoma TILs; assay: Cell counts of melanoma TILs expanded in pre-REP and REP with CPI-444; type: cell-based, human; conditions: pre-REP 11 days, melanoma tumor fragments pooled
Protocol: The expression of A2aR on TILs and the effect of an A2aR antagonist on TILs was evaluated by culturing melanoma tumor fragments or lung tumor fragments in both pre-REP and the REP phases either with or without the addition of CPI-444 (ciforadenant), an A2aR antagonist, which was obtained commercially from MedChemExpress, Inc., Monmouth Junction, N.J., USA. The experimental procedure is similar to that of Example 3 and Example 10, with the changes as described below.
Melanoma tumors and lung tumors were obtained from patients. The tumor samples were generally fragmented using sharp dissection into small pieces of about 3 mm×3 mm×3 mm. The TILs were cultured from these fragments using mechanical dissociation, using scalpel and forceps. Repeated cycles of mechanical dissociation and mixing were applied until only small tissue pieces are present. At the end of this process, the tumor fragments were placed into pre-REP culture. […]
as §1, with “A2aR. […]” for “A2aR.”

[4] = system: melanoma TILs; assay: Flow cytometry of CD8+ and CD4+ subsets, melanoma TILs expanded with CPI-444; type: cell-based, human; conditions: melanoma TIL cultures treated with A2aR antagonist
Description: as §1, §2

PF-05082566: fully human immunoglobulin G2-lambda anti-4-1BB (CD137) agonist monoclonal antibody, Pfizer; SEQ ID NO:11 and 12
peripheral blood B cell numbers [1]: either unchanged or decreased

Cc1ccc(-c2nc(N)nc3c2nnn3Cc2cccc(CO[C@H]3CCOC3)n2)o1 [CPI-444, 7-(5-methylfuran-2-yl)-3-[[6-[[(3S)-oxolan-3-yl]oxymethyl]pyridin-2-yl]methyl]triazolo[4,5-d]pyrimidin-5-amine]
CD8+ population ([2]; at the 12 nM, 48 nM and 32 μM concentrations): increase | CD8+ TIL populations, response to 8 μM versus 32 μM ([2]; second tumor): modulated differently | Cell Count at end or preREP Culture (Millions of Cells) ([3]; IL-2 + 12 nM CPI-444/100,000 Cells): 8.7 Millions of Cells | Cell Count at end or preREP Culture (Millions of Cells) ([3]; IL-2 + 48 nM CPI-444/100,000 Cells): 12.8 Millions of Cells | CD8+ population [4]: decrease
